From publication PMC4639779, “Peptide Functionalized Gold Nanorods for the Sensitive Detection of a Cardiac Biomarker Using Plasmonic Paper Devices” (Scientific Reports, 2015)
Where “and” joins values, the source holds several entries; their conditions need not be identical. Equal values may be shown once. Each block holds one molecule with its values, some of them ahead of it.

Assays:
[1] = Distance-dependent refractive index sensitivity of AuNR (layer-by-layer); assay type: physicochemical
Excerpt: We probed the distance-dependent sensitivity of the AuNRs, nanotransducers used in this study, by depositing polyelectrolyte multilayers using layer-by-layer (LbL) assembly. Extinction spectra were collected after the deposition of each bilayer comprised of poly(allylamine hydrocholoride) (PAH) as a positively charged polymer and poly(styrene sulfonate) (PSS) as a negatively charged polymer. […] It is instructive to define a parameter called distance-dependent refractive index sensitivity (σ), which is the LSPR shift caused by the deposition of a 1 nm thick dielectric layer (polyelectrolyte multilayers in the present case) at a predetermined distance from the surface of the nanotransducer. The extinction measurements after troponin binding to the bioconjugated AuNR were performed in the dry state. So, considering that the thickness of peptide and antibody in their dry state is ~1 nm and ~4.2 nm for peptide and antibody, respectively, the values of σ are computed as shown in Fig. 5E. For peptide recognition elements, σ is found to be 6.67 nm/nm whereas in case of antibody, σ is found to be 4.33 nm/nm. From the distance-dependent refractive index sensitivity measurements, it can be seen that the local refractive index sensitivity with peptide recognition elements is nearly 50% higher than compared to that with antibody-based recognition elements. […] This discrepancy can possibly be due to the higher number of cTnI molecules bound on the AuNR surface in the case of the peptide recognition elements compared to antibodies. The low steric hindrance of the peptides facilitates a higher density of the recognition elements on the surface of the Au nanotransducers and thus a higher density of cTnI molecules. This observation will be further explored in future studies in order to maximize the sensitivity of our BPDs.
Glass substrates were modified by 1% P2VP followed by the adsorption of AuNR. […]

[2] = AFM dry state thickness of recognition layer on AuNR; assay type: physicochemical
Procedure: We have also used dynamic light scattering (DLS) to monitor the changes in the hydrodynamic size of the AuNR upon bioconjugation with cTnI binding peptide or anti-cTnI. […] The dry state thickness of the peptide and antibody recognition layers was measured using atomic force microscopy (AFM; Supplemental Figure S6).
Now we turn our attention to the structure-based functional mechanism of the peptide-conjugated BPDs. The structure and thickness layer of the peptide recognition element on the gold surface was also investigated using molecular dynamic simulations (described in the supplemental section). […] The amino acid Trp[10] in the peptide (a possible binding residue to cTnI) is distal to the gold surface and accessible for cTnI binding. […] These key residues provide structural information and will be used in further studies for the optimization of peptide recognition elements for cTnI. Of importance to this study, the thickness of the biomolecule adlayer can be obtained from our molecular dynamic simulations. […] The smaller thickness of the peptide layer renders higher sensitivity of BPDs using peptide recognition elements. For calculating the thickness layer from our computational models, the gold surface is aligned in the XY plane and the thickness of the peptide or peptide-cTnI complex on the gold surface is calculated as the maximum difference of the Z-coordinates. […]

[3] = tested on: cTnI (troponin I); experiment: LSPR detection of cTnI with bioplasmonic paper device in buffer; assay type: binding, human; conditions: highest concentration tested, 3.53 μg/ml cTnI
Procedure: To probe the sensing capability of the BPDs, we exposed the BPDs to troponin I (3.53 μg/ml in 0.1 M TBS pH 8.0). […] The higher sensitivity of peptide-AuNR compared to antibody-AuNR is due to differences in the thickness of the peptide and antibody adsorbate layer as will be discussed in detail below. To probe the limit of detection in both cases, BPDs with bioconjugated AuNR were exposed to varying concentrations of cTnI. […] To compare the selectivity of the peptide and antibody towards cTnI, we used human serum albumin (HSA) as an interfering protein (Supplemental Figure S11). […] A regular laboratory filter paper (Whatman #1) was used for the absorption of nanorods. A 1 cm × 1 cm paper strip is taken and immersed in a solution of AuNR conjugates (peptide and antibody) and left overnight at 4 °C. The paper strip was taken out and washed with tris buffer and immersed in different concentrations of troponin in tris buffer (pH 8) for 2 hours at 4 °C. It was removed and washed thoroughly with tris buffer and dried under a stream of nitrogen. Extinction spectra from paper substrates were collected using a CRAIC microspectrophotometer (QDI 302) coupled to a Leica optical microscope (DM 4000 M) with 20× objective in the range of 450–800 nm with 10 accumulations and 100 ms exposure time in reflection mode. The spectral resolution of the microspectrophotometer is 0.2 nm. […]

[4] = target: T1, cTnI (Homo sapiens, UniProt P19429); conditions: identified from a phage display peptide library; cited from earlier work
T1 construct: purchased Life Diagnostics, USA
T1 sequence (P19429 whole entry): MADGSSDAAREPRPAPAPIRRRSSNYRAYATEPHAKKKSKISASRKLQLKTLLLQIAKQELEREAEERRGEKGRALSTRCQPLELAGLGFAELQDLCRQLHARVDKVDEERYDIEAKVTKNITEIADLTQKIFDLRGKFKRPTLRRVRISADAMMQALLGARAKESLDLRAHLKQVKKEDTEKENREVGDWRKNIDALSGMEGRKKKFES
Excerpt: Gold nanorods (AuNR) are an attractive choice as plasmonic nanotransducers for label-free sensing because of their geometrical tunability of LSPR wavelength and high sensitivity. We synthesized AuNRs using a seed-mediated approach with a length of 47.3 ± 2.3 nm and a diameter of 20.2 ± 1.4 nm (Fig. 2A). The human troponin I binding peptide (-FYSHSFHENWPS-), identified from a phage display peptide library, with nanomolar (nM) binding affinity to cTnI was employed here as the biorecognition element. The conjugation of the peptide to AuNRs as achieved by introducing a cysteine residue at ...

[5] = target: T2, Human Cardiac Troponin-I Recombinant (human, UniProt P19429 1-210); experiment: pull-down; peptide-conjugated AuNRs with cTnI; SDS-PAGE, blotted with polyclonal goat antibody; conditions: both partners purified
T2 construct: human cardiac troponin I, recombinant, bought; also called cTnI; source: bought: Life Diagnostics, USA (recombinant)
T2 sequence (P19429 whole entry): as above

distance-dependent refractive index sensitivity (σ) ([1]; AuNRs on glass, PAH/PSS multilayers, at dry thickness of ~1 nm (peptide) or ~4.2 nm (antibody)): 6.67 nm/nm
corresponding LSPR shift from the distance-dependence curve ([1]; from σ curve of Fig. 5E): 24.5 nm
local refractive index sensitivity higher than with antibody-based recognition elements ([1]; peptide vs antibody): ~50%
thickness of recognition layer on AuNR [2]: 0.96 nm and ~ 0.9 nm
Molecule: -FYSHSFHENWPSC- [cysteine-modified peptide]
LSPR shift higher than with antibodies as recognition elements [3]: ~100%

Molecule: -FYSHSFHENWPS-
binding affinity to cTnI [4]: nanomolar

binding result [5]: binds
B1: cysteine-modified human troponin I binding peptide (-FYSHSFHENWPSC-) (peptide)
peptide: FYSHSFHENWPSC
notes: In all assays the peptide was attached to gold (Au surface of the QCM, or gold nanorods) by an Au-S linkage through its C-terminal cysteine; source: synthetic peptide, bought: Genscript USA Inc
